Results: PubChem BioAssay (NCI)
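The compound was tested at five concentrations on cells cultured in 96-well plates, with a 48-hour exposure period. TGI denotes the concentration required for complete inhibition of growth.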

Tests used:
Experiment in all cases: NCI tumour cell line growth inhibition, 48 h
SNB-75 CNS = test system: SNB-75 CNS
MDA-N = test system: MDA-N
SK-MEL-2 melanoma = test system: SK-MEL-2 melanoma
A498 renal = test system: A498 renal
NCI-H23 lung = test system: NCI-H23 lung
NCI-H226 lung = test system: NCI-H226 lung
SF-295 CNS = test system: SF-295 CNS
CCRF-CEM leukemia = test system: CCRF-CEM leukemia
M14 melanoma = test system: M14 melanoma
A549 NSCLC = test system: A549 NSCLC
MALME-3M melanoma = test system: MALME-3M melanoma
BT-549 breast = test system: BT-549 breast
CAKI-1 renal = test system: CAKI-1 renal
RXF 393 renal = test system: RXF 393 renal
HOP-62 NSCLC = test system: HOP-62 NSCLC
NCI-H522 lung = test system: NCI-H522 lung
UO-31 renal = test system: UO-31 renal
SK-MEL-28 melanoma = test system: SK-MEL-28 melanoma
OVCAR-5 ovarian = test system: OVCAR-5 ovarian
HCC-2998 colon = test system: HCC-2998 colon
MDA-MB-231 breast = test system: MDA-MB-231 breast
RPMI-8226 leukemia = test system: RPMI-8226 leukemia
OVCAR-3 ovarian = test system: OVCAR-3 ovarian
UACC-257 melanoma = test system: UACC-257 melanoma
NCI-H460 lung = test system: NCI-H460 lung
U251 CNS = test system: U251 CNS
NCI/ADR-RES ovarian = test system: NCI/ADR-RES ovarian
TK-10 renal = test system: TK-10 renal
MOLT-4 leukemia = test system: MOLT-4 leukemia
SN12C renal = test system: SN12C renal
SF-268 CNS = test system: SF-268 CNS
SW-620 colon = test system: SW-620 colon
UACC-62 melanoma = test system: UACC-62 melanoma
COLO 205 colon = test system: COLO 205 colon
T-47D breast = test system: T-47D breast
LOX IMVI melanoma = test system: LOX IMVI melanoma
DU-145 prostate = test system: DU-145 prostate
HT29 colon = test system: HT29 colon
K-562 leukemia = test system: K-562 leukemia
SK-OV-3 ovarian = test system: SK-OV-3 ovarian
HOP-92 NSCLC = test system: HOP-92 NSCLC
SF-539 CNS = test system: SF-539 CNS
HL-60(TB) leukemia = test system: HL-60(TB) leukemia
OVCAR-4 ovarian = test system: OVCAR-4 ovarian
HCT-116 colon = test system: HCT-116 colon
MCF7 breast = test system: MCF7 breast
SNB-19 CNS = test system: SNB-19 CNS
HS 578T breast = test system: HS 578T breast
PC-3 prostate = test system: PC-3 prostate
MDA-MB-435 = test system: MDA-MB-435
EKVX NSCLC = test system: EKVX NSCLC
HCT-15 colon = test system: HCT-15 colon
SK-MEL-5 melanoma = test system: SK-MEL-5 melanoma
IGROV1 ovarian = test system: IGROV1 ovarian
ACHN renal = test system: ACHN renal
786-0 renal = test system: 786-0 renal
KM12 colon = test system: KM12 colon
OVCAR-8 ovarian = test system: OVCAR-8 ovarian
SR leukemia = test system: SR leukemia

What does the source list for `C=CC(C)(O)CCC1C(=C)C(O)CC2C(C)(C)CCCC12C` (stereo not drawn)?
TGI (SNB-75 CNS): > 100 µM; TGI (MDA-N): 34.6 µM; TGI (SK-MEL-2 melanoma): 31.1 µM; TGI (A498 renal): 33.3 µM; TGI (NCI-H23 lung): 38.3 µM; TGI (NCI-H226 lung): 29.2 µM; TGI (SF-295 CNS): 48 µM; TGI (CCRF-CEM leukemia): 45.4 µM; TGI (M14 melanoma): 30 µM; TGI (A549 NSCLC): 54.9 µM; TGI (MALME-3M melanoma): 34.8 µM; TGI (BT-549 breast): 32.4 µM; TGI (CAKI-1 renal): 68.2 µM; TGI (RXF 393 renal): 29.5 µM; TGI (HOP-62 NSCLC): 43.6 µM; TGI (NCI-H522 lung): 34.1 µM; TGI (UO-31 renal): 28.5 µM; TGI (SK-MEL-28 melanoma): 36.8 µM; TGI (OVCAR-5 ovarian): 41.7 µM; TGI (HCC-2998 colon): 33.2 µM; TGI (MDA-MB-231 breast): 31.8 µM; TGI (RPMI-8226 leukemia): 58.2 µM; TGI (OVCAR-3 ovarian): 39.9 µM; TGI (UACC-257 melanoma): 39 µM; TGI (NCI-H460 lung): 33.5 µM; TGI (U251 CNS): 28.8 µM; TGI (NCI/ADR-RES ovarian): 41.1 µM; TGI (TK-10 renal): 47.5 µM; TGI (MOLT-4 leukemia): 31.2 µM; TGI (SN12C renal): 33 µM; TGI (SF-268 CNS): 38 µM; TGI (SW-620 colon): 43.5 µM; TGI (UACC-62 melanoma): 29.8 µM; TGI (COLO 205 colon): 29.4 µM; TGI (T-47D breast): 93.6 µM; TGI (LOX IMVI melanoma): 38.7 µM; TGI (DU-145 prostate): 37.2 µM; TGI (HT29 colon): 33 µM; TGI (K-562 leukemia): 33.2 µM; TGI (SK-OV-3 ovarian): > 100 µM; TGI (HOP-92 NSCLC): 34 µM; TGI (SF-539 CNS): 31.7 µM; TGI (HL-60(TB) leukemia): 35.9 µM; TGI (OVCAR-4 ovarian): 47.5 µM; TGI (HCT-116 colon): 31.8 µM; TGI (MCF7 breast): 60 µM; TGI (SNB-19 CNS): 35.6 µM; TGI (HS 578T breast): 50.3 µM; TGI (PC-3 prostate): 32.2 µM; TGI (MDA-MB-435): 41.8 µM; TGI (EKVX NSCLC): 36.8 µM; TGI (HCT-15 colon): 33.3 µM; TGI (SK-MEL-5 melanoma): 29.5 µM; TGI (IGROV1 ovarian): 52.2 µM; TGI (ACHN renal): 70.4 µM; TGI (786-0 renal): 32.8 µM; TGI (KM12 colon): 52.1 µM; TGI (OVCAR-8 ovarian): 71.4 µM

Which results are given for `CC(=O)Oc1ccc2cc(Oc3ccccc3)c(=O)oc2c1`?
TGI (SNB-75 CNS): > 100 µM; TGI (MDA-N): > 100 µM; TGI (A498 renal): > 100 µM; TGI (NCI-H23 lung): > 100 µM; TGI (NCI-H226 lung): > 100 µM; TGI (SF-295 CNS): > 100 µM; TGI (M14 melanoma): > 100 µM; TGI (A549 NSCLC): > 100 µM; TGI (MALME-3M melanoma): > 100 µM; TGI (BT-549 breast): > 100 µM; TGI (CAKI-1 renal): > 100 µM; TGI (RXF 393 renal): > 100 µM; TGI (HOP-62 NSCLC): > 100 µM; TGI (NCI-H522 lung): 70.7 µM; TGI (UO-31 renal): > 100 µM; TGI (SK-MEL-28 melanoma): > 100 µM; TGI (OVCAR-5 ovarian): > 100 µM; TGI (HCC-2998 colon): > 100 µM; TGI (MDA-MB-231 breast): > 100 µM; TGI (RPMI-8226 leukemia): > 100 µM; TGI (SR leukemia): > 100 µM; TGI (OVCAR-3 ovarian): > 100 µM; TGI (UACC-257 melanoma): > 100 µM; TGI (NCI-H460 lung): > 100 µM; TGI (U251 CNS): > 100 µM; TGI (TK-10 renal): > 100 µM; TGI (SN12C renal): > 100 µM; TGI (SF-268 CNS): > 100 µM; TGI (SW-620 colon): > 100 µM; TGI (T-47D breast): > 100 µM; TGI (LOX IMVI melanoma): > 100 µM; TGI (DU-145 prostate): > 100 µM; TGI (HT29 colon): > 100 µM; TGI (HOP-92 NSCLC): > 100 µM; TGI (SF-539 CNS): > 100 µM; TGI (HL-60(TB) leukemia): > 100 µM; TGI (OVCAR-4 ovarian): > 100 µM; TGI (HCT-116 colon): > 100 µM; TGI (MCF7 breast): > 100 µM; TGI (SNB-19 CNS): > 100 µM; TGI (HS 578T breast): > 100 µM; TGI (PC-3 prostate): > 100 µM; TGI (EKVX NSCLC): > 100 µM; TGI (HCT-15 colon): > 100 µM; TGI (SK-MEL-5 melanoma): > 100 µM; TGI (IGROV1 ovarian): > 100 µM; TGI (ACHN renal): > 100 µM; TGI (786-0 renal): > 100 µM; TGI (KM12 colon): > 100 µM; TGI (OVCAR-8 ovarian): > 100 µM
